Measurements from patent publication US20180008523A1, “ONYCHOMYCOSIS TREATMENT SYSTEM AND METHOD” (DEVICEFARM, INC., priority 2014, published 2018).
“And” between values parts separate entries of the source, which are not always exact repeats. Equal entries are not always repeated.

Tested on: T. rubrum
Experiment: Eradication of T. rubrum through a bovine hoof disk (modified Franz-type diffusion cell), colony count after treatment
Type: cell-based, Trichophyton rubrum
Conditions: 3 ul PFD on hoof immediately before 45 minutes of plasma treatment; seven days of incubation; 94% for one hoof, 100% (no colonies) for the other two
Description: Eradication of T. rubrum through a bovine hoof using Perfluorode alin (PFD) facilitator and an SMD plasma-generating device.
The in vitro test model uses a bovine, hoof disk, a surrogate nail model established in the literature. It is used along with a modified Franz-type diffusion cell to isolate the fungal contaminated side of the hoof in an enclosed chamber that ensures the treatment path is through the hoof barrier. An equal amount of T. rubrum is pipetted onto each hoof disc consisting of a 100 ul suspension. Each hoof disk is then placed fungus side down into the modified Franz cell and sealed with an O-ring. Each hoof is then plasma treated for 45 minutes where the average thickness of hoof disks is 0.35 mm. Eight hoof disks were treated as: • a. Control that is placed directly into the wash tube without any treatment • b. Two PFD-only hooves had 3 ul PFD pipetted directly onto the hoof opposite side from the fungus. This was allowed to sit for 45 minutes in the hood before placing in the wash tube. • c. Two Plasma treatment only hooves get just a 45 minute plasma is treatment (i.e., no PFD). • d. Three Plasma treatment with PFD hooves had 3 ul PFD pipetted directly onto the hoof opposite side from the fungus immediately before applying plasma treatment.
After treatment, each hoof went through a fungal collection protocol consisting of washing, dilution, plating and incubation. […]

FC1(F)C(F)(F)C(F)(F)C2(F)C(F)(F)C(F)(F)C(F)(F)C(F)(F)C2(F)C1(F)F (stereo not shown) [PFD, perfluorodecalin]
colony reduction compared to control: 94% and 100%
